Here are results for 18 compounds from patent US20080249080A1, “Benzodiazepine Derivatives and Uses Thereof on Medical Field” (priority 2005, published 2008).

Test [1] has as its system ARO anaplastic thyroid carcinoma cell line. Put plainly: DNA fragmentation, ARO. The class given is cell-based, human. Particulars: 10 μM, 24 and 48 hours. Here is the method: (§1) The authors also have tested compounds according to the invention, in particular RS-678 and RS-779 compounds, also on OVCAR3 ovary carcinoma cell lines, ARO anaplastic thyroid and NPA papillary thyroid human carcinoma cell lines.
(§2) Subsequently, the same cell lines, except OVCAR3, were tested with fourteen new synthetic compounds at 10 μM concentration for 24 and 48 hours: eleven induced the expected cellular death.

In test [2] the test system is K562 cell line. Put plainly: DNA fragmentation, K562 leukemic cell line. It counts as cell-based, human. Particulars: 10 μM, 24 and 48 hours, FIGS. 18, 20, 21. Here is the method:
as §2

Test [3] deals with NPA papillary thyroid carcinoma cell line. In words: DNA fragmentation, NPA. It counts as cell-based, human. Particulars: 10 μM, 24 and 48 hours. Here is the method:
as §1, §2

In test [4] the test system is K562 cell line. Put plainly: DNA fragmentation, K562 leukemic cell line. The class given is cell-based, human. Particulars: 5, 10, 15 μM, 8, 16 and 24 hours, FIG. 1 A, B.
The test system of test [5] is mixed lymphocytic cultures from marrow or peripheral blood of patients suffering from chronic myelogenous leukemia. Put plainly: DNA fragmentation, mixed lymphocytic cultures of CML patients. It counts as cell-based, human. Particulars: samples from patients (some Glivec resistant); 10 μM; 24, 48 and 72 hours; FIGS. 12-14.
Another test has as its system NPA cell line. In words: Percentage of apoptosis, NPA. Particulars: after 24 hours. The class given is cell-based, human.
Test [6] concerns K562 cell line. In words: Percentage of apoptosis, K562. Particulars: after 24 hours. The class given is cell-based, human.
Test [7] deals with tested cell lines (K562, ARO, NPA). In words: Relative cellular death in the tested cell lines. It counts as cell-based, human. Here is the method:
as §2

For another test, the system named is ARO cell line. Put plainly: Percentage of dead cells, ARO. The class given is cell-based, human. Particulars: after 24 hours.
Another test deals with HL-60 and Jurkat cells. Particulars: laboratory experiments; cited from earlier work.

Structures are written as SMILES.

As for `COC(=O)CC1c2cccn2N(C)c2ccccc2N1C(=O)c1ccccc1` (centres unmarked) [RS-337, methyl 10,11-dihydro-5-methyl-10-benzoyl-5H-pyrrolo[1,2-b][1,2,5]-benzotriazepine-11-acetate], the DNA fragmentation result (in test [1]; in the test with K562 cell line [2]; in test [3]) was “DNA fragmentation” throughout.

As to `COC(=O)CC1c2cccn2N(C)c2ccccc2N1C(=O)c1ccc(OC)cc1` (centres unmarked) [RS-421, methyl 10,11-dihydro-5-methyl-10-(4-metoxybenzoyl)-5H-pyrrolo[1,2-b][1,2,5]-benzotriazepine-11-acetate], the DNA fragmentation entry (in test [1]; with K562 cell line [2]; in [3]) was “DNA fragmentation” each time.

For the compound `O=C(O)C1Nc2ccccc2S(=O)(=O)n2cccc21` (centres unmarked) [RS-735, 10,11-dihydropyrrolo[1,2-b][1,2,5]benzothiadiazepine-11-carboxylic 5,5-dioxide acid], the “apoptosis / DNA fragmentation” value in the test on K562 cell line [4] was “not able to produce the DNA fragmentation”. In addition, the DNA fragmentation entry (in test [1]; with K562 cell line [2]; in test [3]) was “not present” in each case.

Consider `O=S1(=O)c2ccccc2NC(CO)c2cccn21` (centres unmarked) [RS-750, 10,11-dihydropyrrolo [1,2-b][1,2,5]benzothiadiazepine-11-methanol 5,5-dioxide], for which the DNA fragmentation result (in test [1]; in the test on K562 cell line [2]; in [3]) was “not present” throughout.

On to `CCOC(=O)CC1Nc2ccccc2S(=O)(=O)n2cccc21` (centres unmarked) [RS-752, ethyl 10,11-dihydropyrrolo[1,2-b][1,2,5]benzothiadiazepine-11-acetate 5,5-dioxide], for which the DNA fragmentation entry (in [1]; in test [5]; in the test on K562 cell line [2]; in test [3]) was “DNA fragmentation” in each case.

As to `O=C(O)CC1Nc2ccccc2S(=O)(=O)n2cccc21` (centres unmarked) [RS-761, 10,11-dihydropyrrolo[1,2-b][1,2,5]benzothiadiazepine-11-acetic 5,5-dioxide acid], the DNA fragmentation entry (in test [1]; with K562 cell line [2]; in test [3]) was “not present” in each case.

For the compound `O=C(OC(c1ccc(Cl)cc1)C1Nc2ccccc2S(=O)(=O)n2cccc21)c1ccccc1` (centres unmarked) [RS-786, 11-(4-Chlorophenybenzoyloxymethylene)10,11-dihydro pyrrolo[1,2-b][1,2,5]benzothiadiazepine 5,5-dioxide], the DNA fragmentation result (in test [1]; with K562 cell line [2]; in test [3]) was “not present” throughout.

In the case of `CCOC(=O)C1c2cccn2S(=O)(=O)c2ccccc2N1C(=O)c1ccccc1` (centres unmarked) [RS-2629, ethyl 10,11-dihydro-10-(benzoyl)pyrrolo[1,2-b][1,2,5]benzo-thiadiazepine-11-carboxylate 5,5-dioxide], the percentage of apoptosis with NPA cell line was 80%; in the test with K562 cell line [6] it was 85%. Besides, the DNA fragmentation entry (in [1]; with K562 cell line [2]; in test [3]) was “DNA fragmentation” in each case. For the same compound, the “cellular death relative to other compounds” value in test [7] was “greater cellular death”. The “percentage of dead cells” value with ARO cell line is on record as “approximately 60%”.

With `CCOC(=O)C1c2cccn2S(=O)(=O)c2ccccc2N1C(=O)c1cccc2ccccc12` (centres unmarked) [RS-2631, ethyl 10,11-dihydro-10-(1-naphtoyl)pyrrolo[1,2-b][1,2,5]benzo-thiadiazepine-11-carboxylate 5,5-dioxide], the DNA fragmentation result (in test [1]; in the test on K562 cell line [2]; in [3]) was “DNA fragmentation” in each case.

In the case of `CCOC(=O)C1c2cccn2S(=O)(=O)c2ccccc2N1C(=O)c1ccc(F)cc1` (centres unmarked) [RS-2632, ethyl 10,11-dihydro-10-(4-fluorobenzoyl)pyrrolo[1,2-b][1,2,5]benzothiadiazepine-11-carboxylate 5,5-dioxide], the DNA fragmentation result (in test [1]; in the test with K562 cell line [2]; in [3]) was “DNA fragmentation” in each case.

For `CCOC(=O)CC1c2cccn2S(=O)(=O)c2ccccc2N1C(=O)c1ccccc1` (centres unmarked) [RS-2645, ethyl 10,11-dihydro-10-(benzoyl)pyrrolo[1,2-b][1,2,5]benzo-thiadiazepine-11-acetate 5,5-dioxide], the DNA fragmentation result (in test [1]; in the test on K562 cell line [2]; in test [3]) was “DNA fragmentation” throughout. Moreover, the “cellular death relative to other compounds” value in test [7] was “greater cellular death”.

`CCOC(=O)CC1c2cccn2S(=O)(=O)c2ccccc2N1C(=O)c1ccc(F)cc1` (centres unmarked) [RS-2652, ethyl 10,11-dihydro-10-(4-fluorobenzoyl)pyrrolo[1,2-b][1,2,5]benzothiadiazepine-11-acetate 5,5-dioxide]: the DNA fragmentation entry (in test [1]; with K562 cell line [2]; in test [3]) was “DNA fragmentation” each time.

Consider `CCOC(=O)CC1c2cccn2S(=O)(=O)c2ccccc2N1C(=O)c1ccc(Cl)cc1` (centres unmarked) [RS-2660, ethyl 10,11-dihydro-10-(4-chlorobenzoyl)pyrrolo[1,2-b][1,2,5]benzothiadiazepine-11-acetate 5,5-dioxide], for which the DNA fragmentation entry (in [1]; in the test with K562 cell line [2]; in test [3]) was “DNA fragmentation” throughout.

As to `CCOC(=O)CC1c2cccn2S(=O)(=O)c2ccccc2N1C(=O)c1cccc2ccccc12` (centres unmarked) [RS-2661, ethyl 10,11-dihydro-10-(1-naphtoyl)pyrrolo[1,2-b][1,2,5]benzothiadiazepine-11-acetate 5,5-dioxide], the DNA fragmentation entry (in test [1]; in the test on K562 cell line [2]; in [3]) was “DNA fragmentation” in each case.

As for `CC[C@@]1(O)C(=O)OCc2c1cc1n(c2=O)Cc2cc3ccccc3nc2-1` [camptothecin], the induction of apoptosis result in the test on HL-60 and Jurkat cells is listed as “able to induce apoptosis”.

Consider `COc1cccc2c1C(=O)c1c(O)c3c(c(O)c1C2=O)C[C@@](O)(C(C)=O)C[C@@H]3O[C@H]1C[C@H](N)[C@H](O)[C@H](C)O1` [daunoribucin], for which the induction of apoptosis result in the test with HL-60 and Jurkat cells is on record as “able to induce apoptosis”.

Consider `COc1cccc2c1C(=O)c1c(O)c3c(c(O)c1C2=O)C[C@@](O)(C(=O)CO)C[C@@H]3O[C@H]1C[C@H](N)[C@H](O)[C@H](C)O1` [doxorubicin], for which the induction of apoptosis entry with HL-60 and Jurkat cells is “able to induce apoptosis”.

As to `COc1cc([C@@H]2c3cc4c(cc3[C@@H](O[C@@H]3O[C@@H]5CO[C@@H](C)O[C@H]5[C@H](O)[C@H]3O)[C@H]3COC(=O)[C@H]23)OCO4)cc(OC)c1O` [etoposide], in the test on HL-60 and Jurkat cells, the induction of apoptosis entry is given as “able to induce apoptosis”.
